Test results reported in US6020341A, “Enediyne quinone imines and methods of preparation and use thereof” (priority 1997, dated 2000).
pIC50: −log10 of the molar value. Like-named read-outs stand apart in the source and are kept apart here.

Tests used:
[1] = tested on: Human breast adenocarcinoma cells (SK-Br-3); experiment: Cytotoxicity, SK-Br-3; type: cell-based; settings: for pIC50 / IC90: Homo sapiens; for IC90: read-out: Cytotoxic Concentration IC90
From the text: (§1) | cell growth by 50% (IC50) in μM.

solid tumor = experiment: In vivo toxicity and efficacy in tumor bearing mice (Tables 5-7); parameters: species or system mouse; settings: i.p., in words
HL-60 cells = experiment: Growth inhibition, XTT assay, HL-60; type: cell-based; settings: Homo sapiens
Description: (§2) Cells were platted on day 1, drug was added on day 2, and XTT assays (for HL-60, MT-2, MT-4 leukemic cells) or SRB assays (for 833K and SK-Br-3 solid tumor cells) were carried out on day 5.

MT2 cells = experiment: Cytotoxicity, MT2; type: cell-based; settings: Table 15, MT2
[2] = tested on: Human testicular teratocarcinoma cells (833K); experiment: Cytotoxicity, 833K; type: cell-based; settings: for pIC50 / IC90: Homo sapiens, 833K; for IC90: read-out: Cytotoxic Concentration IC90
From the text: as §1

833K solid tumor cells = experiment: Growth inhibition, SRB assay, 833K; type: cell-based; settings: Homo sapiens, Table 8, 833K
Description: as §2

[3] = tested on: Lewis lung adenocarcinoma; experiment: Anticancer activity in B6D2F1 mice bearing Lewis lung adenocarcinoma; type: in vivo, mouse
Description: ^a Tumor (2.5 × 10E6 cells) was inoculated S.C. on day (-3).
Treatment started on day 1, I.P., Q.D.X5. Control had 6 mice and each dos
had 5 mice. Tumor size was evaluated on day 7, day 10 and day 14.

[4] = tested on: SK-Br-3 solid tumor cells; experiment: Growth inhibition, SRB assay, SK-Br-3; type: cell-based; settings: Homo sapiens, Table 8, SKBr-3, SRB
Description: as §2

[5] = tested on: Chinese hamster lung cells (DC-3F); experiment: Cytotoxicity, DC-3F; type: cell-based; settings: for pIC50 / IC90: Cricetulus griseus, DC3F; for IC90: read-out: Cytotoxic Concentration IC90
From the text: as §1

MT4 cells = experiment: Cytotoxicity, MT4; type: cell-based; settings: Table 15, MT4
[6] = tested on: Lewis lung adenocarcinoma; experiment: Anticancer activity in BDF mice bearing Lewis lung adenocarcinoma; type: in vivo, mouse
Description: ^a Tumor (4 × 10^6 cells) was inoculated S.C. Treatment
started on day 4, I.P., QDX5. Control had 4 mice and each dose had 3 mice
Tumor sizes were evaluated on day 7, day 10 and day 14 after beginning of […]

B-16 melanoma = experiment: Antitumor activity against B-16 melanoma in mice (s.c. tumor, i.p. treatment); type: in vivo, mouse
Description: ^a Tumor (2 × 10^6 cells) was inoculated s.c. Treatment
started day 4, QD × 5, i.p.; control had nine mice, and each dose
two mice; tumor size was evaluated on Day 7 after the beginning of
started day 4, I.P., QD × 5; control had 3 mice, and each dose had
mice; Tumor size was evaluated on day 7 after the beginning of treatment.

sarcoma 180 = experiment: Antitumor activity against sarcoma 180 in B6D2F1 mice, b.i.d.x5; type: in vivo, mouse
From the text: ^a Tumor (3 × 10^6 cells) was inoculated S.C. on day -3.
Antitumor treatment started on day 1, b.i.d.X5, IP.

MT-4 leukemic cells = experiment: Growth inhibition, XTT assay, MT-4; type: cell-based; settings: Table 8, MT-4, XTT
Description: as §2

[7] = Homo sapiens, read-out: Cytotoxic Concentration IC50
[8] = Homo sapiens, read-out: Cytotoxic Concentration IC90
[9] = Table 11, 0.5 mg/kg i.p. Q.D.X5, Day 7
[10] = Table 11, 0.5 mg/kg i.p. Q.D.X5, Day 10
[11] = Table 11, 1.0 mg/kg i.p. Q.D.X5, Day 7
[12] = Table 11, 1.0 mg/kg i.p. Q.D.X5, Day 10
[13] = Table 11, 1.5 mg/kg i.p. Q.D.X5, Day 7
[14] = Table 11, 1.5 mg/kg i.p. Q.D.X5, Day 10
[15] = Table 11, 2.0 mg/kg i.p. Q.D.X5, Day 7
[16] = Table 11, 2.0 mg/kg i.p. Q.D.X5, Day 10
[17] = Table 6, 0.2 mg/kg i.p. QD×5, day 7
[18] = Table 6, 0.5 mg/kg i.p. QD×5, day 7
[19] = Table 6, 2.0 mg/kg i.p. QD×5, day 7
[20] = Table 12, 0.15 mg/kg IP b.i.d.X5, Day 7
[21] = Table 12, 0.15 mg/kg IP b.i.d.X5, Day 14
[22] = Table 12, 0.2 mg/kg IP b.i.d.X5, Day 7
[23] = Table 12, 0.2 mg/kg IP b.i.d.X5, Day 14
[24] = Table 12, 0.3 mg/kg IP b.i.d.X5, Day 7
[25] = Table 12, 0.3 mg/kg IP b.i.d.X5, Day 14

CO[C@@]12[C@H](COC(N)=O)C3=C(C(=O)C(C)=C(N)C3=O)N1C[C@@H]1N[C@@H]12 [mitomycin C]
pIC50 ([1]; SK-BR-3, Table 2, SK-Br-3 (Breast), read-out: concentration required to inhibit cell growth by 50% (IC50)): 6.00 | pIC50 ([1]; SK-BR-3, Table 4, SK-Br-3, read-out: Cytotoxic Concentration IC50): 6.00 | IC90 ([1]; SK-BR-3, Table 4, SK-Br-3): 21800 nM | pIC50 ([1]; SK-BR-3, Table 13, SK-Br-3, read-out: Cytotoxic Concentration IC50): 5.63 | IC90 ([1]; SK-BR-3, Table 13, SK-Br-3): 62900 nM | Cytotoxic Concentration IC95 ([1]; Table 4, SK-Br-3): 62300 nM | ratio of IC50 to EQI-6 (in parentheses) ([1]; Table 4, SK-Br-3, EQI-6 = (1)): 29.2 × | ratio of IC90 to EQI-6 (in parentheses) ([1]; Table 4, SK-Br-3, EQI-6 = (1)): 16.6 × | ratio of IC95 to EQI-6 (in parentheses) ([1]; Table 4, SK-Br-3, EQI-6 = (1)): 187.7 × | Cytotoxic Concentration IC95 ([1]; Table 13, SK-Br-3): 192890 nM | solid tumor growth inhibition / therapeutic efficacy (solid tumor): Therapeutic efficacy in mice for both appeared similar | pIC50 (HL-60 cells; Table 8, HL-60, XTT, growth inhibition, read-out: IC50): 7.10 | pIC50 (HL-60 cells; Table 9, HL 60, XTT, 72 h, read-out: Dm): 7.32 | pIC50 (MT2 cells; [7]): 6.77 | IC90 (MT2 cells; [8]): 398 nM | Cytotoxic Concentration IC95 (MT2 cells): 532 nM | pIC50 ([2]; Table 2, 833K (Testicular), read-out: concentration required to inhibit cell growth by 50% (IC50)): 6.50 | pIC50 ([2]; Table 4, 833k, read-out: Cytotoxic Concentration IC50): 6.50 | IC90 ([2]; Table 4, 833k): 1530 nM | pIC50 ([2]; Table 15, 833K, read-out: Cytotoxic Concentration IC50): 6.40 | IC90 ([2]; Table 15, 833K): 2290 nM | Cytotoxic Concentration IC95 ([2]; Table 4, 833k): 2610 nM | ratio of IC50 to EQI-6 (in parentheses) ([2]; Table 4, 833k, EQI-6 = (1)): 45.4 × | ratio of IC90 to EQI-6 (in parentheses) ([2]; Table 4, 833k, EQI-6 = (1)): 61.2 × | ratio of IC95 to EQI-6 (in parentheses) ([2]; Table 4, 833k, EQI-6 = (1)): 66.9 × | Cytotoxic Concentration IC95 ([2]; Table 15, 833K): 4155 nM | pIC50 (833K solid tumor cells): 6.52 | AWC (average weight change) [3, 9]: -1.5 g | Avg Tumor Vol (T/C) [3, 9]: 0.530 | AWC (average weight change) [3, 10]: -0.1 g | Avg Tumor Vol (T/C) [3, 10]: 0.712 | AWC (average weight change) [3, 11]: -0.8 g | Avg Tumor Vol (T/C) [3, 11]: 0.380 | AWC (average weight change) [3, 12]: -0.9 g | Avg Tumor Vol (T/C) [3, 12]: 0.451 | AWC (average weight change) [3, 13]: -1.5 g | Avg Tumor Vol (T/C) [3, 13]: 0.340 | AWC (average weight change) [3, 14]: -1.3 g | Avg Tumor Vol (T/C) [3, 14]: 0.402 | mortality ([3]; Table 11, 2.0 mg/kg i.p. Q.D.X5): One of 5 mice died on day 7 | AWC (average weight change) [3, 15]: -1.8 g | Avg Tumor Vol (T/C) [3, 15]: 0.286 | AWC (average weight change) [3, 16]: 1.6 g | Avg Tumor Vol (T/C) [3, 16]: 0.485 | pIC50 [4]: 6.52 | pIC50 ([5]; Table 2, DC-3F, read-out: concentration required to inhibit cell growth by 50% (IC50)): 7.09 | pIC50 ([5]; Table 4, DC-3F, read-out: Cytotoxic Concentration IC50): 7.09 | IC90 ([5]; Table 4, DC-3F): 374 nM | pIC50 ([5]; Table 13, DC-3F, read-out: Cytotoxic Concentration IC50): 7.23 | IC90 ([5]; Table 13, DC-3F): 166 nM | Cytotoxic Concentration IC95 ([5]; Table 4, DC-3F): 629 nM | ratio of IC50 to EQI-6 (in parentheses) ([5]; Table 4, DC-3F, EQI-6 = (1)): 45.1 × | ratio of IC90 to EQI-6 (in parentheses) ([5]; Table 4, DC-3F, EQI-6 = (1)): 34 × | ratio of IC95 to EQI-6 (in parentheses) ([5]; Table 4, DC-3F, EQI-6 = (1)): 31.6 × | Cytotoxic Concentration IC95 ([5]; Table 13, DC-3F): 235 nM | pIC50 (MT4 cells; [7]): 6.94 | IC90 (MT4 cells; [8]): 253 nM | Cytotoxic Concentration IC95 (MT4 cells): 331 nM | tumor inhibition ([6]; 0.8 mg/kg i.p. QDx5, day 14, Lewis lung adenocarcinoma): 56.3% | Average Tumor Volume (T/C) ([6]; Table 7, 0.4 mg/kg i.p. QDX5, Day 7): 0.490 | Average Tumor Volume (T/C) ([6]; Table 7, 0.4 mg/kg i.p. QDX5, Day 10): 0.411 | Average Tumor Volume (T/C) ([6]; Table 7, 0.4 mg/kg i.p. QDX5, Day 14): 0.515 | Average Tumor Volume (T/C) ([6]; Table 7, 0.8 mg/kg i.p. QDX5, Day 7): 0.356 | Average Tumor Volume (T/C) ([6]; Table 7, 0.8 mg/kg i.p. QDX5, Day 10): 0.363 | Average Tumor Volume (T/C) ([6]; Table 7, 0.8 mg/kg i.p. QDX5, Day 14): 0.437 | mortality ([6]; Table 7, 2.0 mg/kg i.p. QDX5): All of three mice died on day 8 or day 9 | Average Tumor Volume (T/C) ([6]; Table 7, 2.0 mg/kg i.p. QDX5, Day 7): 0.169 | tumor inhibition (B-16 melanoma; 0.5 mg/kg i.p. QDx5, B-16 melanoma): 24.6% | AVE TUMOR VOLUME (T/C) (B-16 melanoma; [17]): 0.952 | AWC (average weight change) (B-16 melanoma; [17]): -1.9 g | AVE TUMOR VOLUME (T/C) (B-16 melanoma; [18]): 0.756 | AWC (average weight change) (B-16 melanoma; [18]): -0.9 g | AVE TUMOR VOLUME (T/C) (B-16 melanoma; [19]): 0.143 | AWC (average weight change) (B-16 melanoma; [19]): +0.4 g | AWC (average weight change) (sarcoma 180; [20]): -0.6 g | Avg Tumor Volume (T/C) (sarcoma 180; [20]): 0.650 | AWC (average weight change) (sarcoma 180; [21]): +0.2 g | Avg Tumor Volume (T/C) (sarcoma 180; [21]): 0.814 | AWC (average weight change) (sarcoma 180; [22]): +0.8 g | Avg Tumor Volume (T/C) (sarcoma 180; [22]): 0.538 | AWC (average weight change) (sarcoma 180; [23]): -0.6 g | Avg Tumor Volume (T/C) (sarcoma 180; [23]): 0.485 | AWC (average weight change) (sarcoma 180; [24]): -1.8 g | Avg Tumor Volume (T/C) (sarcoma 180; [24]): 0.249 | AWC (average weight change) (sarcoma 180; [25]): -1.0 g | Avg Tumor Volume (T/C) (sarcoma 180; [25]): 0.394 | pIC50 (MT-4 leukemic cells): 6.82
